This passage reports EC50 results from patent US11618749B2, “Compounds and compositions for treating conditions associated with STING activity” (IFM Due, Inc., priority 2018, dated 2023).

The structures appear in SMILES notation.

The target in this assay is T1, hSTING (Homo sapiens, UniProt Q86WV6, G230A/H232R/R293Q/R71H).
T1 construct: host or cells: THP1-Dual KO-IFNAR2 cells
T1 sequence (Q86WV6 whole entry R71H/G230A/H232R/R293Q): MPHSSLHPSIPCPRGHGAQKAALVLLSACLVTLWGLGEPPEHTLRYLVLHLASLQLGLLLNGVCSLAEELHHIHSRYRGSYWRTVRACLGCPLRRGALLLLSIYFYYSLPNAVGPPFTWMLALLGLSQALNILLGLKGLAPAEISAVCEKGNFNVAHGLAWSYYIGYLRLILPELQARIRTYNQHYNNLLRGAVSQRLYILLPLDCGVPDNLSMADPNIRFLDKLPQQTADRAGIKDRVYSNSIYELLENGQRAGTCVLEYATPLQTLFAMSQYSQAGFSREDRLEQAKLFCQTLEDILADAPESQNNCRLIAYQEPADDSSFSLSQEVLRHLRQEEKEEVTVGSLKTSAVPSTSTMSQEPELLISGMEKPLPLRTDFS
Description: STING reporter assay (luciferase reporter) in THP1-Dual KO-IFNAR2 cells activated with 2′3′cGAMP. The format is cell-based. The conditions noted are these: 15 μM 2′3′cGAMP, 24 h, luciferase reporter activity. The method, then:
STING pathway activation by the compounds described herein is measured using THP1-Dual™ cells (KO-IFNAR2).
THP1-Dual™ KO-IFNAR2 Cells (obtained from invivogen) are maintained in RPMI, 10% FCS, 5 ml P/S, 2 mM L-glut, 10 mM Hepes, and 1 mM sodium pyruvate. Compounds are spotted in empty 384 well tissue culture plates (Greiner 781182) by Echo for a final concentration of […]. Cells are plated into the TC plates at 40 μL per well, 2×10E6 cells/mL. For activation with STING ligand, 2′3′cGAMP (MW 718.38, obtained from Invivogen), is prepared in Optimem media.
The following solutions are prepared for each 1×384 plate: • Solution A: 2 mL Optimem with one of the following stimuli: • 60 uL of 10 mM 2′3′cGAMP→150 μM stock • Solution B: 2 mL Optimem with 60 μL Lipofectamine 2000→Incubate 5 min at RT
2 mL of solution A and 2 ml Solution B is mixed and incubated for 20 min at room temperature (RT). 20 uL of transfection solution (A+B) is added on top of the plated cells, with a final 2′3′cGAMP concentration of 15 μM. The plates are then centrifuged immediately at 340 g for 1 minute, after which they are incubated at 37° C., 5% CO2, >98% humidity for 24 h. Luciferase reporter activity is then measured. EC50 values were calculated by using standard methods known in the art.
Luciferase Reporter Assay:
10 μL of supernatant from the assay is transferred to white 384-plate with flat bottom and squared wells. one pouch of QUANTI-Luc™ Plus is dissolved in 25 mL of water. 100 μL of QLC Stabilizer per 25 mL of QUANTI-Luc™ Plus solution was added. 50 μL of QUANTI-Luc™ Plus/QLC solution per well is then added. Luminescence is measured on a Platereader (e.g., Spectramax I3X (Molecular Devices GF3637001)).
Luciferase reporter activity is then measured. EC50 values are calculated by using standard methods known in the art.
In the case of `CCCCC1CCN(C(=O)Nc2c[nH]c3ncccc23)CC1` [Compound 132], the EC50 was 1 to 5 µM.

`O=C(Nc1c[nH]c2ncccc12)NC1CC(c2ccccc2)C1` (stereo not drawn) [Compound 133] returned a concentration for a half-maximal effect (EC50) of 5 to 100 µM. With `O=C(Nc1c[nH]c2ncccc12)NC1CCCc2ccccc21` (stereo not drawn) [Compound 135], the EC50 fell in the range of 5 to 100 µM.

As to `O=C(Nc1c[nH]c2ncccc12)NC1CCc2ccccc2C1` (stereo not drawn) [Compound 136], the EC50 is 5 to 100 µM. Under `O=C(Nc1c[nH]c2cnccc12)NC1CCC(c2ccccc2)CC1` (stereo not drawn) [Compound 137] stands 1 to 5 µM. Consider `O=C(Nc1ccc(C(F)(F)F)cn1)Nc1c[nH]c2ncc(F)cc12` [Compound 138], for which the EC50 fell in the range of 0.2 to 1 µM. `O=C(Nc1cccc(C2CCCCC2)c1)Nc1c[nH]c2cccnc12` [Compound 139] returned an EC50 of 0.2 to 1 µM. For the molecule `CCCCC1CCN(C(=O)Nc2c[nH]c3cccnc23)CC1` [Compound 140], the EC50 is 1 to 5 µM. Regarding `O=C(Nc1c[nH]c2cccnc12)NC1CCC(C(F)(F)F)CC1` (stereo not drawn) [Compound 141], the EC50 was in the range of 5 to 100 µM.

For `O=C(Nc1c[nH]c2cccnc12)NC1CCC2(CCC2)CC1` [Compound 142], the EC50 fell in the range of 1 to 5 µM. Regarding `O=C(Nc1ccc(C(F)(F)F)cc1)Nc1c[nH]c2ncc(-c3ccccc3)cc12` [Compound 143, 1-(5-phenyl-1H-pyrrolo[2,3-b]pyridin-3-yl)-3-(4-(trifluoromethyl)phenyl)urea], the EC50 was 1 to 5 µM.

The molecule `O=C(Nc1ccc(C(F)(F)F)cc1)Nc1c[nH]c2cnccc12` [Compound 144] showed an EC50 of 1 to 5 µM. Under `O=C(Nc1ccc(C(F)(F)F)cc1)Nc1c[nH]c2ccncc12` [Compound 145] stands 0.2 to 1 µM. Regarding `O=C(Nc1ccc(C(F)(F)F)cc1)Nc1c[nH]c2cccnc12` [Compound 146], the EC50 fell in the range of 1 to 5 µM. `O=C(Nc1ccc(C(F)(F)F)cc1)Nc1c[nH]c2ncc(Br)cc12` [Compound 147] had an EC50 of 0.04 to 0.2 µM. As to `O=C(Nc1cccc(C(F)(F)F)c1)Nc1c[nH]c2ccncc12` [Compound 148], the EC50 lay in the range of 1 to 5 µM. The molecule `O=C(Nc1cccc(C(F)(F)F)c1)Nc1c[nH]c2cnccc12` [Compound 149] gave an EC50 of 5 to 100 µM. In the case of `O=C(Nc1cccc(C(F)(F)F)c1)Nc1c[nH]c2ncccc12` [Compound 150], the concentration for a half-maximal effect (EC50) is 1 to 5 µM. The value for `N#Cc1cnc2[nH]cc(NC(=O)Nc3ccc(C(F)(F)F)cc3)c2c1` [Compound 151] was 0.2 to 1 µM; that for `O=C(Nc1ccc(C(F)(F)F)cn1)Nc1c[nH]c2cccnc12` [Compound 152] was 5 to 100 µM. Molecule `CN(C(=O)Nc1c[nH]c2cccnc12)c1ccc(C(F)(F)F)cc1` [Compound 154] gave an EC50 of 5 to 100 µM. In turn, `O=C(Nc1ccc(C(F)(F)F)nc1)Nc1c[nH]c2cccnc12` [Compound 156] returned an EC50 of 5 to 100 µM. Turning to `O=C(Nc1c[nH]c2cccnc12)NC1CC2CCC(C2)C1` (stereo not drawn) [Compound 157], the EC50 fell in the range of 5 to 100 µM.

For the molecule `O=C(Nc1c[nH]c2cccnc12)N1CCC2(CCCC2)CC1` [Compound 159, N-(1H-pyrrolo[3,2-b]pyridin-3-yl)-8-azaspiro[4.5]decane-8-carboxamide], the EC50 fell in the range of 5 to 100 µM. The value for `O=C(Nc1c[nH]c2ncccc12)NC1CC2CCC(C2)C1` (stereo not drawn) [Compound 160] was 5 to 100 µM; that for `O=C(Nc1c[nH]c2ccncc12)NC1CC2CCC(C2)C1` (stereo not drawn) [Compound 161] was 5 to 100 µM; that for `O=C(Nc1c[nH]c2ncc(-c3ccccc3)cc12)NC1CCC(C(F)(F)F)CC1` (stereo not drawn) [Compound 162, 3-[5-phenyl-1H-pyrrolo[2,3-b]pyridin-3-yl]-1l-[4-(trifluoromethyl)cyclohexyl]urea] was 5 to 100 µM. The value for `Cc1cnc2[nH]cc(NC(=O)Nc3ccc(C(F)(F)F)cc3)c2c1` [Compound 163] was 0.2 to 1 µM. The molecule `O=C(Nc1ccc(C(F)(F)F)cc1)Nc1c[nH]c2cncc(F)c12` [Compound 164] displayed an EC50 of 5 to 100 µM. The molecule `O=C(Nc1ccc(C(F)(F)F)cc1)Nc1c[nH]c2c(F)cncc12` [Compound 165] registered an EC50 of 0.2 to 1 µM. As to `O=C(Nc1c[nH]c2ncccc12)NC1CCC(c2ccccc2)CC1` (stereo not drawn) [Compound 166], the EC50 lay within 0.2 to 1 µM. Under `CCCCC1CCCN(C(=O)Nc2c[nH]c3ncccc23)C1` (stereo not drawn) [Compound 167] stands 5 to 100 µM. Turning to `CCc1cnc(NC(=O)Nc2c[nH]c3ncccc23)s1` [Compound 168], the EC50 lay in the range of 5 to 100 µM. `CCc1ccc(NC(=O)Nc2c[nH]c3ncccc23)nc1` [Compound 169] displayed an EC50 of 5 to 100 µM.

Turning to `CCCCC1CCC(NC(=O)Nc2c[nH]c3ncccc23)CC1` (stereo not drawn) [Compound 170], the EC50 is 0.2 to 1 µM. The molecule `CCc1ccc(CNC(=O)Nc2c[nH]c3ncccc23)cc1` [Compound 171] registered an EC50 of 5 to 100 µM. `CN(C(=O)Nc1c[nH]c2ncc(F)cc12)c1ccc(C(F)(F)F)cc1` [Compound 172] showed an EC50 of 5 to 100 µM.

With `O=C(Nc1ccc(C(F)(F)F)cc1)Nc1c[nH]c2ncc(F)cc12` [Compound 173, 1-(5-fluoro-1H-pyrrolo[2,3-b]pyridin-3-yl)-3-(4-(trifluoromethyl)phenyl)urea], the EC50 is 0.04 to 0.2 µM.

`CCc1ccc(NC(=O)Nc2c[nH]c3ncc(F)cc23)cc1` [Compound 174] registered an EC50 of 0.04 to 0.2 µM.

As for `O=C(Nc1ccc(C(F)(F)F)cc1)Nc1c[nH]c2cnc(-c3ccccc3)nc12` [Compound 180], the EC50 lay in the range of 5 to 100 µM. The value for `O=C(Nc1ccc(C(F)(F)F)cc1)Nc1c[nH]c2c(Cl)ncnc12` [Compound 183] was 5 to 100 µM. Under `CCc1ccc(NC(=O)Nc2c[nH]c3ncncc23)cc1` [Compound 183b] stands 5 to 100 µM.

The molecule `CC(C)n1cc(-c2ccnc3[nH]cc(NC(=O)Nc4ccc(C(F)(F)F)cc4)c23)cn1` [Compound 186] yielded an EC50 of 5 to 100 µM. `O=C(Nc1ccc(C(F)(F)F)cc1)Nc1c[nH]c2ncc(-c3ccc(N4CCOCC4)nc3)cc12` [Compound 188] yielded an EC50 of 5 to 100 µM. As for `O=C(Nc1ccc(C(F)(F)F)cc1)Nc1c[nH]c2nccc(-c3cccnc3)c12` [Compound 189], the EC50 was 5 to 100 µM.

In turn, `CC(c1ccc(-c2ccnc3[nH]cc(NC(=O)Nc4ccc(C(F)(F)F)cc4)c23)cc1)N(C)C` (stereo not drawn) [Compound 192] yielded an EC50 of 5 to 100 µM. Turning to `CC(C)n1cc(-c2cnc3[nH]cc(NC(=O)Nc4ccc(C(F)(F)F)cc4)c3c2)cn1` [Compound 193], the EC50 was 0.2 to 1 µM. For the molecule `CN1CC=C(c2ccnc3[nH]cc(NC(=O)Nc4ccc(C(F)(F)F)cc4)c23)CC1` [Compound 195], the EC50 lay within 5 to 100 µM. Turning to `CC(c1ccc(-c2cnc3[nH]cc(NC(=O)Nc4ccc(C(F)(F)F)cc4)c3c2)cc1)N(C)C` (stereo not drawn) [Compound 196], the EC50 was 5 to 100 µM. `CN1CCN(c2ccc(-c3cnc4[nH]cc(NC(=O)Nc5ccc(C(F)(F)F)cc5)c4c3)cc2)CC1` [Compound 197]: the EC50 lay in the range of 1 to 5 µM. `Cn1cc(-c2cnc3[nH]cc(NC(=O)Nc4ccc(C(F)(F)F)cc4)c3c2)c(C(F)(F)F)n1` [Compound 198] registered an EC50 of 1 to 5 µM.

As for `O=C(Nc1ccc(C(F)(F)F)cc1)Nc1c[nH]c2nccc(C3=CCOCC3)c12` [Compound 203], the EC50 is 5 to 100 µM. In turn, `CN(C)S(=O)(=O)c1cccc(-c2cnc3[nH]cc(NC(=O)Nc4ccc(C(F)(F)F)cc4)c3c2)c1` [Compound 204] yielded a half-maximal effective concentration (EC50) of 1 to 5 µM. Under `CC(C)(O)c1cccc(-c2ccnc3[nH]cc(NC(=O)Nc4ccc(C(F)(F)F)cc4)c23)c1` [Compound 205] stands 5 to 100 µM; under `O=C(Nc1ccc(C(F)(F)F)cc1)Nc1c[nH]c2nccc(-c3ccncc3)c12` [Compound 206], 5 to 100 µM. Under `CS(=O)(=O)c1ccc(-c2cnc3[nH]cc(NC(=O)Nc4ccc(C(F)(F)F)cc4)c3c2)cc1` [Compound 207] stands 5 to 100 µM; under `CC(C)(O)c1ccc(-c2cnc3[nH]cc(NC(=O)Nc4ccc(C(F)(F)F)cc4)c3c2)cc1` [Compound 209], 1 to 5 µM; under `O=C(Nc1ccc(C(F)(F)F)cc1)Nc1c[nH]c2ncc(-c3cccnc3)cc12` [Compound 210], 1 to 5 µM.

`O=C(Nc1ccc(C(F)(F)F)cc1)Nc1c[nH]c2ncc(-c3ccc(OCC4CC4)nc3)cc12` [Compound 211] had an EC50 of 0.2 to 1 µM.

`O=C(Nc1ccc(C(F)(F)F)cc1)Nc1c[nH]c2ncc(C3=CCOCC3)cc12` [Compound 212] came in with an EC50 of 1 to 5 µM.

In turn, `CN1CC=C(c2cnc3[nH]cc(NC(=O)Nc4ccc(C(F)(F)F)cc4)c3c2)CC1` [Compound 213] came in with an EC50 of 5 to 100 µM. For `COc1ccc(F)c(F)c1-c1cnc2[nH]cc(NC(=O)Nc3ccc(C(F)(F)F)cc3)c2c1` [Compound 214], the EC50 lay in the range of 5 to 100 µM. As for `CC(C)(O)c1cccc(-c2cnc3[nH]cc(NC(=O)Nc4ccc(C(F)(F)F)cc4)c3c2)c1` [Compound 215], the EC50 was in the range of 1 to 5 µM.

The EC50 is the concentration at which the effect is half-maximal.
